According to BigSolDB 2.1:

Settings: in ethanol, 323.15 K

Compound | solubility (mole fraction)
O=C(/C=C/c1cn(-c2ccccc2)nc1-c1ccccc1Cl)c1nc2ccccc2[nH]1 | 0.000195
COc1ccc(-c2nn(-c3ccccc3)cc2/C=C/C(=O)c2nc3ccccc3[nH]2)cc1 | 0.00043
COc1ccc(-c2nn(-c3ccccc3)cc2/C=C/C(=O)c2nc3ccccc3[nH]2)cc1OC | 0.0001

Continued, values first:

solubility (mole fraction) | Compound
0.000155 | O=C(/C=C/c1cn(-c2ccccc2)nc1-c1ccc(Cl)cc1)c1nc2ccccc2[nH]1
0.000103 | O=C(/C=C/c1cn(-c2ccccc2)nc1-c1cccc([N+](=O)[O-])c1)c1nc2ccccc2[nH]1
0.000146 | O=C(/C=C/c1cn(-c2ccccc2)nc1-c1ccccc1)c1nc2ccccc2[nH]1

Same assay, conditions: in ethanol, 328.15 K

Compound | solubility (mole fraction)
O=C(/C=C/c1cn(-c2ccccc2)nc1-c1ccccc1Cl)c1nc2ccccc2[nH]1 | 0.000217
COc1ccc(-c2nn(-c3ccccc3)cc2/C=C/C(=O)c2nc3ccccc3[nH]2)cc1 | 0.000452
COc1ccc(-c2nn(-c3ccccc3)cc2/C=C/C(=O)c2nc3ccccc3[nH]2)cc1OC | 0.000111

Now from value to molecule:

solubility (mole fraction) | Compound
0.000165 | COc1cccc(-c2nn(-c3ccccc3)cc2/C=C/C(=O)c2nc3ccccc3[nH]2)c1
0.000172 | O=C(/C=C/c1cn(-c2ccccc2)nc1-c1ccc(Cl)cc1)c1nc2ccccc2[nH]1
0.000119 | O=C(/C=C/c1cn(-c2ccccc2)nc1-c1cccc([N+](=O)[O-])c1)c1nc2ccccc2[nH]1
0.00016 | O=C(/C=C/c1cn(-c2ccccc2)nc1-c1ccccc1)c1nc2ccccc2[nH]1

Same assay, conditions: in ethyl acetate, 298.15 K

Compound | solubility (mole fraction)
O=C(/C=C/c1cn(-c2ccccc2)nc1-c1ccccc1Cl)c1nc2ccccc2[nH]1 | 0.00077
COc1ccc(-c2nn(-c3ccccc3)cc2/C=C/C(=O)c2nc3ccccc3[nH]2)cc1 | 0.000809
COc1ccc(-c2nn(-c3ccccc3)cc2/C=C/C(=O)c2nc3ccccc3[nH]2)cc1OC | 0.000355

Next, values leading:

solubility (mole fraction) | Compound
0.000241 | COc1cccc(-c2nn(-c3ccccc3)cc2/C=C/C(=O)c2nc3ccccc3[nH]2)c1
0.000257 | O=C(/C=C/c1cn(-c2ccccc2)nc1-c1ccc(Cl)cc1)c1nc2ccccc2[nH]1
0.0013 | O=C(/C=C/c1cn(-c2ccccc2)nc1-c1cccc([N+](=O)[O-])c1)c1nc2ccccc2[nH]1
0.000159 | O=C(/C=C/c1cn(-c2ccccc2)nc1-c1ccccc1)c1nc2ccccc2[nH]1

Same assay, conditions: in ethyl acetate, 303.15 K

Compound | solubility (mole fraction)
O=C(/C=C/c1cn(-c2ccccc2)nc1-c1ccccc1Cl)c1nc2ccccc2[nH]1 | 0.00095
COc1ccc(-c2nn(-c3ccccc3)cc2/C=C/C(=O)c2nc3ccccc3[nH]2)cc1 | 0.000826
COc1ccc(-c2nn(-c3ccccc3)cc2/C=C/C(=O)c2nc3ccccc3[nH]2)cc1OC | 0.000425

Further lines, results first:

solubility (mole fraction) | Compound
0.000256 | COc1cccc(-c2nn(-c3ccccc3)cc2/C=C/C(=O)c2nc3ccccc3[nH]2)c1
0.00029 | O=C(/C=C/c1cn(-c2ccccc2)nc1-c1ccc(Cl)cc1)c1nc2ccccc2[nH]1
0.00149 | O=C(/C=C/c1cn(-c2ccccc2)nc1-c1cccc([N+](=O)[O-])c1)c1nc2ccccc2[nH]1
0.000195 | O=C(/C=C/c1cn(-c2ccccc2)nc1-c1ccccc1)c1nc2ccccc2[nH]1

Same assay, conditions: in ethyl acetate, 308.15 K

Compound | solubility (mole fraction)
O=C(/C=C/c1cn(-c2ccccc2)nc1-c1ccccc1Cl)c1nc2ccccc2[nH]1 | 0.00107
COc1ccc(-c2nn(-c3ccccc3)cc2/C=C/C(=O)c2nc3ccccc3[nH]2)cc1 | 0.000846
COc1ccc(-c2nn(-c3ccccc3)cc2/C=C/C(=O)c2nc3ccccc3[nH]2)cc1OC | 0.000471

Second part, the molecule after the results:

solubility (mole fraction) | Compound
0.000274 | COc1cccc(-c2nn(-c3ccccc3)cc2/C=C/C(=O)c2nc3ccccc3[nH]2)c1
0.000328 | O=C(/C=C/c1cn(-c2ccccc2)nc1-c1ccc(Cl)cc1)c1nc2ccccc2[nH]1
0.0017 | O=C(/C=C/c1cn(-c2ccccc2)nc1-c1cccc([N+](=O)[O-])c1)c1nc2ccccc2[nH]1
0.000243 | O=C(/C=C/c1cn(-c2ccccc2)nc1-c1ccccc1)c1nc2ccccc2[nH]1

Same assay, conditions: in ethyl acetate, 313.15 K

Compound | solubility (mole fraction)
O=C(/C=C/c1cn(-c2ccccc2)nc1-c1ccccc1Cl)c1nc2ccccc2[nH]1 | 0.0012
COc1ccc(-c2nn(-c3ccccc3)cc2/C=C/C(=O)c2nc3ccccc3[nH]2)cc1 | 0.000868
COc1ccc(-c2nn(-c3ccccc3)cc2/C=C/C(=O)c2nc3ccccc3[nH]2)cc1OC | 0.00052

Next, values leading:

solubility (mole fraction) | Compound
0.000292 | COc1cccc(-c2nn(-c3ccccc3)cc2/C=C/C(=O)c2nc3ccccc3[nH]2)c1
0.000385 | O=C(/C=C/c1cn(-c2ccccc2)nc1-c1ccc(Cl)cc1)c1nc2ccccc2[nH]1
0.00194 | O=C(/C=C/c1cn(-c2ccccc2)nc1-c1cccc([N+](=O)[O-])c1)c1nc2ccccc2[nH]1
0.000312 | O=C(/C=C/c1cn(-c2ccccc2)nc1-c1ccccc1)c1nc2ccccc2[nH]1

Same assay, conditions: in ethyl acetate, 318.15 K

Compound | solubility (mole fraction)
O=C(/C=C/c1cn(-c2ccccc2)nc1-c1ccccc1Cl)c1nc2ccccc2[nH]1 | 0.00135
COc1ccc(-c2nn(-c3ccccc3)cc2/C=C/C(=O)c2nc3ccccc3[nH]2)cc1 | 0.000886
COc1ccc(-c2nn(-c3ccccc3)cc2/C=C/C(=O)c2nc3ccccc3[nH]2)cc1OC | 0.000554

Now from value to molecule:

solubility (mole fraction) | Compound
0.000317 | COc1cccc(-c2nn(-c3ccccc3)cc2/C=C/C(=O)c2nc3ccccc3[nH]2)c1
0.000432 | O=C(/C=C/c1cn(-c2ccccc2)nc1-c1ccc(Cl)cc1)c1nc2ccccc2[nH]1
0.00217 | O=C(/C=C/c1cn(-c2ccccc2)nc1-c1cccc([N+](=O)[O-])c1)c1nc2ccccc2[nH]1
0.000362 | O=C(/C=C/c1cn(-c2ccccc2)nc1-c1ccccc1)c1nc2ccccc2[nH]1

Same assay, conditions: in ethyl acetate, 323.15 K

Compound | solubility (mole fraction)
O=C(/C=C/c1cn(-c2ccccc2)nc1-c1ccccc1Cl)c1nc2ccccc2[nH]1 | 0.00145
COc1ccc(-c2nn(-c3ccccc3)cc2/C=C/C(=O)c2nc3ccccc3[nH]2)cc1 | 0.00091
COc1ccc(-c2nn(-c3ccccc3)cc2/C=C/C(=O)c2nc3ccccc3[nH]2)cc1OC | 0.00059

The next lines start with the values.

solubility (mole fraction) | Compound
0.000336 | COc1cccc(-c2nn(-c3ccccc3)cc2/C=C/C(=O)c2nc3ccccc3[nH]2)c1
0.000482 | O=C(/C=C/c1cn(-c2ccccc2)nc1-c1ccc(Cl)cc1)c1nc2ccccc2[nH]1
0.00244 | O=C(/C=C/c1cn(-c2ccccc2)nc1-c1cccc([N+](=O)[O-])c1)c1nc2ccccc2[nH]1
0.000403 | O=C(/C=C/c1cn(-c2ccccc2)nc1-c1ccccc1)c1nc2ccccc2[nH]1

Same assay, conditions: in ethyl acetate, 328.15 K

Compound | solubility (mole fraction)
O=C(/C=C/c1cn(-c2ccccc2)nc1-c1ccccc1Cl)c1nc2ccccc2[nH]1 | 0.00157
COc1ccc(-c2nn(-c3ccccc3)cc2/C=C/C(=O)c2nc3ccccc3[nH]2)cc1 | 0.000935
COc1ccc(-c2nn(-c3ccccc3)cc2/C=C/C(=O)c2nc3ccccc3[nH]2)cc1OC | 0.000629

The remaining lines, values ahead:

solubility (mole fraction) | Compound
0.000365 | COc1cccc(-c2nn(-c3ccccc3)cc2/C=C/C(=O)c2nc3ccccc3[nH]2)c1
0.000526 | O=C(/C=C/c1cn(-c2ccccc2)nc1-c1ccc(Cl)cc1)c1nc2ccccc2[nH]1
0.00277 | O=C(/C=C/c1cn(-c2ccccc2)nc1-c1cccc([N+](=O)[O-])c1)c1nc2ccccc2[nH]1
0.000463 | O=C(/C=C/c1cn(-c2ccccc2)nc1-c1ccccc1)c1nc2ccccc2[nH]1

Same assay, conditions: in methanol, 298.15 K

Compound | solubility (mole fraction)
O=C(/C=C/c1cn(-c2ccccc2)nc1-c1ccccc1Cl)c1nc2ccccc2[nH]1 | 9.04e-05
COc1ccc(-c2nn(-c3ccccc3)cc2/C=C/C(=O)c2nc3ccccc3[nH]2)cc1 | 0.000145
COc1ccc(-c2nn(-c3ccccc3)cc2/C=C/C(=O)c2nc3ccccc3[nH]2)cc1OC | 3.04e-05

Second part, the molecule after the results:

solubility (mole fraction) | Compound
2.71e-05 | COc1cccc(-c2nn(-c3ccccc3)cc2/C=C/C(=O)c2nc3ccccc3[nH]2)c1
4.06e-05 | O=C(/C=C/c1cn(-c2ccccc2)nc1-c1ccc(Cl)cc1)c1nc2ccccc2[nH]1
4.04e-05 | O=C(/C=C/c1cn(-c2ccccc2)nc1-c1cccc([N+](=O)[O-])c1)c1nc2ccccc2[nH]1
5.54e-05 | O=C(/C=C/c1cn(-c2ccccc2)nc1-c1ccccc1)c1nc2ccccc2[nH]1

Same assay, conditions: in methanol, 303.15 K

Compound | solubility (mole fraction)
O=C(/C=C/c1cn(-c2ccccc2)nc1-c1ccccc1Cl)c1nc2ccccc2[nH]1 | 0.000116
COc1ccc(-c2nn(-c3ccccc3)cc2/C=C/C(=O)c2nc3ccccc3[nH]2)cc1 | 0.000149
COc1ccc(-c2nn(-c3ccccc3)cc2/C=C/C(=O)c2nc3ccccc3[nH]2)cc1OC | 3.6e-05

More lines, now with the values ahead:

solubility (mole fraction) | Compound
3.15e-05 | COc1cccc(-c2nn(-c3ccccc3)cc2/C=C/C(=O)c2nc3ccccc3[nH]2)c1
5.1e-05 | O=C(/C=C/c1cn(-c2ccccc2)nc1-c1ccc(Cl)cc1)c1nc2ccccc2[nH]1
4.85e-05 | O=C(/C=C/c1cn(-c2ccccc2)nc1-c1cccc([N+](=O)[O-])c1)c1nc2ccccc2[nH]1
6.53e-05 | O=C(/C=C/c1cn(-c2ccccc2)nc1-c1ccccc1)c1nc2ccccc2[nH]1

Same assay, conditions: in methanol, 308.15 K

Compound | solubility (mole fraction)
O=C(/C=C/c1cn(-c2ccccc2)nc1-c1ccccc1Cl)c1nc2ccccc2[nH]1 | 0.000133
COc1ccc(-c2nn(-c3ccccc3)cc2/C=C/C(=O)c2nc3ccccc3[nH]2)cc1 | 0.000155
COc1ccc(-c2nn(-c3ccccc3)cc2/C=C/C(=O)c2nc3ccccc3[nH]2)cc1OC | 4.06e-05

Results, then the molecule that gave them:

solubility (mole fraction) | Compound
3.63e-05 | COc1cccc(-c2nn(-c3ccccc3)cc2/C=C/C(=O)c2nc3ccccc3[nH]2)c1
6.74e-05 | O=C(/C=C/c1cn(-c2ccccc2)nc1-c1ccc(Cl)cc1)c1nc2ccccc2[nH]1
5.5e-05 | O=C(/C=C/c1cn(-c2ccccc2)nc1-c1cccc([N+](=O)[O-])c1)c1nc2ccccc2[nH]1
8.08e-05 | O=C(/C=C/c1cn(-c2ccccc2)nc1-c1ccccc1)c1nc2ccccc2[nH]1

Same assay, conditions: in methanol, 313.15 K

Compound | solubility (mole fraction)
COc1cccc(-c2nn(-c3ccccc3)cc2/C=C/C(=O)c2nc3ccccc3[nH]2)c1 | 4.12e-05
O=C(/C=C/c1cn(-c2ccccc2)nc1-c1ccc(Cl)cc1)c1nc2ccccc2[nH]1 | 7.9e-05
O=C(/C=C/c1cn(-c2ccccc2)nc1-c1ccccc1Cl)c1nc2ccccc2[nH]1 | 0.000149
